Experimental data from patent US5644055A, “Antihypertensive tricyclic azepine derivatives useful as inhibitors of enkephalinase and ACE” (Ciba-Geigy Corporation, priority 1995, dated 1997).

Legend:
[1] = target: T1, neutral endopeptidase (NEP, EC 3.4.24.11) (Rattus norvegicus, UniProt P07861); experiment: in vitro inhibition of neutral endopeptidase (GAAP in vitro assay); format: biochemical; conditions: rat kidney cortex membranes, 500 μM glutaryl-Ala-Ala-Phe-2-naphthylamide, pH 7.4, 10 minutes at 25° C.
T1 construct: rat kidney cortex membranes; from tissue; host or cells: rat kidney cortex membranes
T1 sequence (P07861 1-750): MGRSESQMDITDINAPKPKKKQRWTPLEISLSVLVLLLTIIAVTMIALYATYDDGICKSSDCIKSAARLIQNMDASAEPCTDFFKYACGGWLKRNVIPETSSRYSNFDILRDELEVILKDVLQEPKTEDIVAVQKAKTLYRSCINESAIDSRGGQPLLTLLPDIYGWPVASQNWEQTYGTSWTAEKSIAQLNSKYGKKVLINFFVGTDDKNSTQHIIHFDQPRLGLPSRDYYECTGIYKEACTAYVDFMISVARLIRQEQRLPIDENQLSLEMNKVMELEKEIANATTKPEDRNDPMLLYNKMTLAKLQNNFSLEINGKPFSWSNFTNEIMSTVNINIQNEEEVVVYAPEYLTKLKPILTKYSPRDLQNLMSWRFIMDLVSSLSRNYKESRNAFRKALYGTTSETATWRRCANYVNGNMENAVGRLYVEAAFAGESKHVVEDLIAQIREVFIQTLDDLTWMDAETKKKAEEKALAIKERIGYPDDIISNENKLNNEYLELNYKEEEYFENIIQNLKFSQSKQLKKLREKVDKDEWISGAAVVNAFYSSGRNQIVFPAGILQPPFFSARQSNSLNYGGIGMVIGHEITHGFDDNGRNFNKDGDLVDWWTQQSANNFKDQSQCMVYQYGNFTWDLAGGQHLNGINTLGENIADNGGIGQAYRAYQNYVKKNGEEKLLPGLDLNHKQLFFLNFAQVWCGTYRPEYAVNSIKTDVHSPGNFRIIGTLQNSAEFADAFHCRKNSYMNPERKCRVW
Description: (§1) In vitro testing is most appropriate for the free carboxylic acids of the invention. The test compound is dissolved in dimethyl sulfoxide, ethanol, or 0.25M sodium bicarbonate solution, and the solution is diluted with buffer to the desired concentration.
The in vitro inhibition of neutral endopeptidase (NEP, EC 3.4.24.11) can be determined as follows:
Neutral endopeptidase 3.4.24.11 activity is determined by the hydrolysis of the substrate glutaryl-Ala-Ala-Phe-2-naphthylamide (GAAP) using a modified procedure of Orlowski and Wilk (1981). The incubation mixture (total volume 125 μl) contains 4.2 μg of protein (rat kidney cortex membranes prepared by method of Maeda et at, 1983), 50 mM tris buffer, pH 7.4 at 25° C., 500 μM substrate (final concentration), and leucine aminopeptidase M (2.5 μg). The mixture is incubated for 10 minutes at 25° C. and 100 μl of fast garnet (250 μg fast garnet/ml of 10% Tween 20 in 1M sodium acetate, pH 4.2) is added. Enzyme activity is measured spectrophotometrically at 540 nm. One unit of NEP 24.11 activity is defined as 1 nmol of 2-naphthylamine released per minute at 25° C. at pH 7.4. IC50 values are determined, i.e. the concentration of test compound required for 50% inhibition of the release of 2-naphthylamine.

[2] = target: T2, angiotensin-converting enzyme (Oryctolagus cuniculus, UniProt P12822); experiment: in vitro inhibition of the angiotensin-converting enzyme (hippuryl-histidyl-leucine substrate); format: biochemical; conditions: pH 8.3, 30 minutes at 37° C., read-out: IC50, inhibiting ACE in vitro assay
T2 sequence (P12822 34-1310): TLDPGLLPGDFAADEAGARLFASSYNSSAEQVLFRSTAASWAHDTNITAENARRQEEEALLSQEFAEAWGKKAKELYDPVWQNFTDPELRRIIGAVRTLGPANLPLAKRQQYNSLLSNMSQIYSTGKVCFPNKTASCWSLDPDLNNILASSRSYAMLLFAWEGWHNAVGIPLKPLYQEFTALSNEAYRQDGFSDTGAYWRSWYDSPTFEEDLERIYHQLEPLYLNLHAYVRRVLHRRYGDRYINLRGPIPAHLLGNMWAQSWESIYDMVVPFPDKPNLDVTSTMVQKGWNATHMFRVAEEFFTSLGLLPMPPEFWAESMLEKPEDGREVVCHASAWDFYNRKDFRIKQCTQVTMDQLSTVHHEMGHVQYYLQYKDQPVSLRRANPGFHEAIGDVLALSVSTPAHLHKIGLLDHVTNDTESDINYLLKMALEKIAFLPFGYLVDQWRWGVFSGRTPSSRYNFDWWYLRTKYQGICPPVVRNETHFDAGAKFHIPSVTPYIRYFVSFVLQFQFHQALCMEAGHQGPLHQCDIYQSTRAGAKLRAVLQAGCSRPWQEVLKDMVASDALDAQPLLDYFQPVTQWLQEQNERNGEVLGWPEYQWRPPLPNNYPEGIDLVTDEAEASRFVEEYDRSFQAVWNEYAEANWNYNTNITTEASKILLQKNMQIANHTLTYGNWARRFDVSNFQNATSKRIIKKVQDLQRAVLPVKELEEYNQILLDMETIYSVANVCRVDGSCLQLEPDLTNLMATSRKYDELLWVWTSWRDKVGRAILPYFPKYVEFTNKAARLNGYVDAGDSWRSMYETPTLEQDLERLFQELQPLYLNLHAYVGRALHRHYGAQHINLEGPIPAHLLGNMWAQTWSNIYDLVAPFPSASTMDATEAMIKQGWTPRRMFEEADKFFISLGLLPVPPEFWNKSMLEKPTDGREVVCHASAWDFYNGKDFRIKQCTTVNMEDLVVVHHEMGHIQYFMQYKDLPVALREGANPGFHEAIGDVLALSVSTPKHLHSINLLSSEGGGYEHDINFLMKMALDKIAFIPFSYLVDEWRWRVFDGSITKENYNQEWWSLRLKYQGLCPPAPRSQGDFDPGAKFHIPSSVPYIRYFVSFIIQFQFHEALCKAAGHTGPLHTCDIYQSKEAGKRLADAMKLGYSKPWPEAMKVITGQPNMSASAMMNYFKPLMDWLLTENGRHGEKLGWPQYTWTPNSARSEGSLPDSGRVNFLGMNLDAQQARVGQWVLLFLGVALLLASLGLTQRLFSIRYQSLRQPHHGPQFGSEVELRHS
Description: as §1
The buffer for the ACE assay is 300 mM NaCl, […] KH2 PO4 (pH 8.3). The reaction is initiated by the addition of 100 μl of hippuryl-histidyl-leucine (2 mg/ml) to tubes containing enzyme and drug in a volume of 150 μl and tubes are incubated for 30 minutes at 37° C. The reaction is terminated by the addition of 0.75 ml 0.6N NaOH. 100 μl of freshly prepared O-pthaldehyde solution (2 mg/ml in methanol) is added to the tubes, the contents are mixed and allowed to stand at room temperature. After 10 minutes, 100 μl of 6N HCl is added. The tubes are centrifuged and the supernatant optical density is read at 360 nm. The results are plotted against drug concentration to determine the IC50, i.e., the drug concentration which gives half the activity of the control sample containing no drug.

| IC50 [1] | IC50 [2] | SMILES |
| --- | --- | --- |
| ~50 nM | ~30 nM | O=C(N[C@H]1CCc2cccc3c2N(C1=O)[C@H](C(=O)O)C3)[C@@H](S)Cc1ccccc1 [2(a), 5-[((S)-2-mercapto-3-phenylpropionyl)-(S)-amino]-1,2,4,5,6,7-hexahydroazepino[3,2,1-hi]indole-4-one-2-(S)-carboxylic acid] |
| – | ~30 nM | CC(C)[C@H](S)C(=O)N[C@H]1CCc2cccc3c2N(C1=O)[C@H](C(=O)O)C3 [5(a), 5-[((S)-2-mercapto-3-methylbutanoyl)-(S)-amino]-1,2,4,5,6,7-hexahydro-azepino[3,2,1-hi]indole-4-one-2-(S)-carboxylic acid] |
| ~15 nM | ~77 nM | O=C(N[C@H]1CCc2cccc3c2N(C1=O)[C@H](C(=O)O)C3)[C@@H](CS)Cc1ccc(-c2ccccc2)cc1 [6(b), 5-[((S)-2-biphenyl-4-ylmethyl-3-mercapto-propionyl)-(S)-amino]-1,2,4,5,6,7-hexahydroazepino[3,2,1-hi]indole-4-one-2-(S)-carboxylic acid] |
